Data taken from patent US20200061007A1, “CANCER STEM CELL PROLIFERATION INHIBITOR” (NATIONAL INSTITUTE OF ADVANCED INDUSTRIAL SCIENCE AND …, priority 2014, published 2020).

Columns and labels:
[1] = tested on: Human Leukemia Cell Line Kasumi-1; experiment: Growth inhibition of Kasumi-1, isobologram; type: cell-based; details: Kasumi-1, RPMI1640 with 20% FBS
Description: A human leukemia cell line Kasummi-1, containing cells positive for cancer stem cell markers, was cultured in RPMI1640 medium supplemented with 20% FBS, and the growth inhibitory action by the combination of Am80 and 5-AZ was studied using Isobologram. […] These concentrations were taken as 1.0, and the points corresponding to 1.0 in the two axes were connected to each other via a straight line. In cases where the ratio observed for the combination effect is on the line, the effect is additive, and, in cases where the ratio is below the line, the effect is synergistic.

[2] = tested on: human breast cancer cell line MCF-7; experiment: Growth inhibition of MCF-7 in vitro; type: cell-based; details: MCF-7, 96 hours of exposure, RPMI1640 with 2% FBS
Description: (§1) A human breast cancer cell line MCF-7, containing cells positive for cancer stem cell markers, was cultured in RPMI1640 medium supplemented with 2% FBS, and the growth inhibitory action by the combination of Am80 and 5-AZ was studied. The IC50 values of the agents determined by 96 hours of the exposure were 1 μM and 20 μM, respectively. Thus, in order to study the growth inhibitory action, Am80 was used within the concentration range of 0.125 μM to 1 μM with a common ratio of 2, and 5-AZ was used within the concentration range of 2.5 μM to 20 μM with a common ratio of 2. In cases of use of these agents in combination, the growth inhibitory action was studied using these concentrations.

[3] = tested on: human prostate cancer cell line LNCaP; experiment: Growth inhibition of LNCaP in vitro; type: cell-based; details: 96 hours of exposure, RPMI1640 with 10% FBS
Description: as §1, with “prostate” for “breast”, “LNCaP,” for “MCF-7,”, “10%” for “2%”, “The IC50 values of the agents determined by 96 hours of the exposure were 1 μM and 20 μM, respectively.” left out, “1.56” for “2.5”, “12.5” for “20”

[4] = tested on: human pancreatic cancer cells MIA-Paca2; experiment: Tumor volume, MIA-Paca2/nude mice; type: in vivo
Description: A tumor piece of human pancreatic cancer cells MIA-Paca2 containing cells positive for cancer stem cell markers was subcutaneously transplanted to the dorsal part of each of 6-week-old female BALB/cAJc1-nu nude mice (4 mice/group, 5 mice only for the control group) using a trocar needle. At the time when the tumor volume reached 100 to 200 mm^3, the administration was started. Am80 was orally administered once a day at a dose of 2 mg/kg for 21 continuous days, and DXL was intravenously administered at a dose of 5 mg/kg from Day 1, 3 times at intervals of 4 days. In the combination group, the agents were administered at the same doses as, and by the same administration methods as, those in the cases of administration of each single agent. Measurement of the tumor diameter was carried out until the next day of the completion of the administration (Day 22). Based on the measured values of the longitudinal diameter and the transverse diameter, the tumor volume (mm^3) was determined according to the following formula: longitudinal diameter×transverse diameter^2/2. In the control group, physiological saline was intraperitoneally administered from Day 1, 3 times at intervals of 4 days.

[5] = tested on: human breast cancer cell line MCF-7; experiment: Tumor volume, MCF-7/nude mice; type: in vivo
Description: (§2) A tumor piece of a human breast cancer cell line MCF-7 containing cells positive for cancer stem cell markers was subcutaneously transplanted to the dorsal part of each of 6-week-old female BALB/cAJc1-nu nude mice (5 mice/group) using a trocar needle. At the time when the tumor volume reached 100 to 200 mm^3, the administration was started. Am80 was orally administered once a day at a dose of 1 mg/kg for 21 continuous days, and DXL was intravenously administered at a dose of 3.5 mg/kg from Day 1, 3 times at intervals of 4 days. In the combination group, the agents were administered at the same doses as, and by the same administration methods as, those in the cases of administration of each single agent. Measurement of the tumor diameter was carried out until the next day of the completion of the administration (Day 22). The longitudinal diameter and the transverse diameter of the tumor were measured using a caliper, and the tumor volume (mm^3) was determined according to the following formula: longitudinal diameter×transverse diameter^2/2. In the control group, physiological saline was intraperitoneally administered from Day 1, 3 times at intervals of 4 days.

[6] = tested on: human prostate cancer cell line LNCaP; experiment: Tumor volume, LNCaP/nude mice; type: in vivo
Description: as §2, with “prostate” for “breast”, “LNCaP” for “MCF-7”, “(4” for “(5”, “5” for “3.5”

Nc1ncn([C@@H]2O[C@H](CO)[C@@H](O)[C@H]2O)c(=O)n1 [5-AZ, Azacytidine]
IC50 [1]: 8.4 µM | IC50 [2]: 20 µM | IC50 [3]: 25 µM

CC(=O)O[C@@]12CO[C@@H]1C[C@H](O)[C@@]1(C)C(=O)[C@H](O)C3=C(C)[C@@H](OC(=O)[C@H](O)[C@@H](NC(=O)OC(C)(C)C)c4ccccc4)C[C@@](O)([C@@H](OC(=O)c4ccccc4)[C@H]21)C3(C)C [DXL, Docetaxel]
tumor volume Day 1 ([4]; Am80 2 mg/kg oral daily 21 days, DXL 5 mg/kg i.v. 3 times at intervals of 4 days, Day 1): 136.7 mm^3 | tumor volume Day 5 ([4]; Am80 2 mg/kg oral daily, DXL 5 mg/kg i.v., Day 5): 151.3 mm^3 | tumor volume Day 9 ([4]; Am80 2 mg/kg oral daily, DXL 5 mg/kg i.v., Day 9): 135.7 mm^3 | tumor volume Day 13 ([4]; Am80 2 mg/kg oral daily, DXL 5 mg/kg i.v., Day 13): 93.7 mm^3 | tumor volume Day 17 ([4]; Am80 2 mg/kg oral daily, DXL 5 mg/kg i.v., Day 17): 76.3 mm^3 | tumor volume Day 22 ([4]; Am80 2 mg/kg oral daily, DXL 5 mg/kg i.v., Day 22): 77.3 mm^3 | tumor volume Day 1 ([5]; Am80 1 mg/kg oral daily 21 days, DXL 3.5 mg/kg i.v. 3 times at intervals of 4 days, Day 1): 143.5 mm^3 | tumor volume Day 5 ([5]; Am80 1 mg/kg oral daily, DXL 3.5 mg/kg i.v., Day 5): 121.5 mm^3 | tumor volume Day 9 ([5]; Am80 1 mg/kg oral daily, DXL 3.5 mg/kg i.v., Day 9): 110.0 mm^3 | tumor volume Day 13 ([5]; Am80 1 mg/kg oral daily, DXL 3.5 mg/kg i.v., Day 13): 83.3 mm^3 | tumor volume Day 17 ([5]; Am80 1 mg/kg oral daily, DXL 3.5 mg/kg i.v., Day 17): 66.5 mm^3 | tumor volume Day 22 ([5]; Am80 1 mg/kg oral daily, DXL 3.5 mg/kg i.v., Day 22): 71.3 mm^3 | tumor volume Day 1 ([6]; Am80 1 mg/kg oral daily 21 days, DXL 5 mg/kg i.v. 3 times at intervals of 4 days, Day 1): 126.7 mm^3 | tumor volume Day 5 ([6]; Am80 1 mg/kg oral daily, DXL 5 mg/kg i.v., Day 5): 111.3 mm^3 | tumor volume Day 9 ([6]; Am80 1 mg/kg oral daily, DXL 5 mg/kg i.v., Day 9): 90.7 mm^3 | tumor volume Day 13 ([6]; Am80 1 mg/kg oral daily, DXL 5 mg/kg i.v., Day 13): 73.7 mm^3 | tumor volume Day 17 ([6]; Am80 1 mg/kg oral daily, DXL 5 mg/kg i.v., Day 17): 72.5 mm^3 | tumor volume Day 22 ([6]; Am80 1 mg/kg oral daily, DXL 5 mg/kg i.v., Day 22): 70.2 mm^3
